Source: patent publication US10173971B2, “Picolinamides with fungicidal activity” (DOW AGROSCIENCES LLC, priority 2014, dated 2019)
Like-named read-outs stand apart in the source and are kept apart here.

Legend:
[1] = system: Puccinia triticina; test: Fungicidal activity: wheat brown rust (PUCCRT), wheat seedlings, booth sprayer to run-off or track spray; format: in vivo; conditions: Low-Volume Cereal Activity at 121.5 g/H
[2] = system: Zymoseptoria tritici; test: Fungicidal activity: leaf blotch of wheat (SEPTTR), wheat seedlings, booth sprayer to run-off or track spray; format: in vivo; conditions: Low-Volume Cereal Activity at 121.5 g/H
[3] = 24 h, 1 Day Protectant, read-out: PUCCRT 1DP
[4] = 72 h, 3 Day Curative, read-out: SEPTTR 3DC
[5] = 72 h, 3 Day Curative, read-out: PUCCRT 3DC
[6] = 24 h, 1 Day Protectant, read-out: SEPTTR 1DP

SMILES	pest or weed control at 121.5 g/ha [1, 3] [%]	pest or weed control at 121.5 g/ha [2, 4] [%]	pest or weed control at 121.5 g/ha [1, 5] [%]	pest or weed control at 121.5 g/ha [2, 6] [%]
CCCOC(C)(C)[C@@H](Cc1ccc(OC)cc1)[C@H](C)OC(=O)[C@H](C)NC(=O)c1nccc(OC)c1OCOC(C)=O [compound 257]	80 to 100	0 to 80	–	–
CCCOC[C@@H](Cc1ccc(OC)c(Cc2ccccc2)c1)[C@H](C)OC(=O)[C@H](C)NC(=O)c1nccc(OC)c1OCOC(C)=O [compound 258]	0 to 80	0 to 80	0 to 80	0 to 80
CCCOC(C)(C)[C@@H](Cc1ccc(OC)c(Cc2ccccc2)c1)[C@H](C)OC(=O)[C@H](C)NC(=O)c1nccc(OC)c1OCOC(C)=O [compound 259]	0 to 80	0 to 80	–	–
COc1ccnc(C(=O)N[C@@H](C)C(=O)OC(C)C(Cc2ccccc2)Cc2ccccc2)c1OC(C)=O (stereo partly shown) [compound 260]	80 to 100	0 to 80	0 to 80	80 to 100
COc1ccnc(C(=O)N[C@H](C(=O)OC(C)C(Cc2ccccc2)Cc2ccccc2)C(C)C)c1OC(C)=O (stereo partly shown) [compound 261]	80 to 100	0 to 80	0 to 80	0 to 80
CC[C@H](NC(=O)c1nccc(OC)c1OC(C)=O)C(=O)OC(C)C(Cc1ccccc1)Cc1ccccc1 (stereo partly shown) [compound 262]	80 to 100	–	0 to 80	0 to 80
COc1ccnc(C(=O)N[C@@H](C)C(=O)OC(C)C(Cc2cccc(F)c2)Cc2cccc(F)c2)c1OC(C)=O (stereo partly shown) [compound 263]	0 to 80	0 to 80	0 to 80	0 to 80
COc1ccnc(C(=O)N[C@@H](C)C(=O)OC(C)C(Cc2ccc(F)cc2)Cc2ccc(F)cc2)c1OC(C)=O (stereo partly shown) [compound 264]	0 to 80	–	–	0 to 80
COc1ccnc(C(=O)N[C@@H](C)C(=O)OC(C)C(Cc2ccccc2)Cc2ccccc2)c1OCOC(C)=O (stereo partly shown) [compound 265]	80 to 100	0 to 80	0 to 80	80 to 100
COc1ccnc(C(=O)N[C@H](C(=O)OC(C)C(Cc2ccccc2)Cc2ccccc2)C(C)C)c1OCOC(C)=O (stereo partly shown) [compound 266]	80 to 100	–	0 to 80	0 to 80
COc1ccnc(C(=O)N[C@@H](C)C(=O)OC(C)C(Cc2cccc(F)c2)Cc2cccc(F)c2)c1OCOC(C)=O (stereo partly shown) [compound 267]	0 to 80	0 to 80	–	0 to 80
COc1ccnc(C(=O)N[C@@H](C)C(=O)OC(C)C(Cc2ccc(F)cc2)Cc2ccc(F)cc2)c1OCOC(C)=O (stereo partly shown) [compound 268]	80 to 100	0 to 80	80 to 100	0 to 80
CC[C@H](NC(=O)c1nccc(OC)c1OCOC(C)=O)C(=O)OC(C)C(Cc1ccccc1)Cc1ccccc1 (stereo partly shown) [compound 269]	80 to 100	80 to 100	0 to 80	80 to 100
COc1cccc(CC(Cc2cccc(OC)c2)[C@H](C)OC(=O)[C@H](C)NC(=O)c2nccc(OC)c2OC(C)=O)c1 [compound 270]	80 to 100	–	0 to 80	0 to 80
CC[C@H](NC(=O)c1nccc(OC)c1OC(C)=O)C(=O)O[C@@H](C)C(Cc1cccc(OC)c1)Cc1cccc(OC)c1 [compound 271]	0 to 80	–	–	0 to 80
COc1ccc(CC(Cc2ccc(OC)cc2)[C@H](C)OC(=O)[C@H](C)NC(=O)c2nccc(OC)c2OC(C)=O)cc1 [compound 272]	0 to 80	–	0 to 80	80 to 100
CC[C@H](NC(=O)c1nccc(OC)c1OC(C)=O)C(=O)O[C@@H](C)C(Cc1ccc(OC)cc1)Cc1cccc(OC)c1 (stereo partly shown) [compound 273]	0 to 80	0 to 80	0 to 80	80 to 100
COc1cccc(CC(Cc2cccc(OC)c2)[C@H](C)OC(=O)[C@H](C)NC(=O)c2nccc(OC)c2OCOC(C)=O)c1 [compound 274]	80 to 100	–	0 to 80	0 to 80
